In patent US20260248833A1, “PYRIMIDINE NUCLEOSIDE TREATMENTS” (The Children`s Medical Center Corporation, priority 2022, published 2026):
“Also recorded” adds a separate entry of the source.

Legend:
[1] = tested on: mouse model of TK2 deficiency; details: 520 mg/kg/day of dT; cited from earlier work
K562 cells [2] = assay: Terminal restriction fragment (TRF) Southern blot telomere length, K562 cells; format: cell-based, human
Method: (§1) Cell culture: K562 cells (ATCC) were grown in RPMI1 1640 (Gibco) media supplemented with 10% fetal bovine serum. 293T cells (ATCC) were grown in DMEM (Gibco) supplemented with 10% fetal bovine serum, and were subcultured using 0.05% trypsin (Gibco). iPSCs were derived, characterized and cultured as previously described. iPSCs were grown in Essential 8 Media (Life Technologies) supplemented with the ROCK inhibitor Y271632 (Stem Cell Technologies) at 10 μM on plates coated with hES qualitied Matrigel matrix (Corning) and were subcultured using Accutase (Stem Cell Technologies).
(§2) Terminal Restriction Fragment Length Analysis: genomic DNA was isolated from cells using the Invitrogen Purelink Genomic DNA mini kit (Invitrogen). 1-3 μg of gDNA was digested with RsaI and HinfI for 2-3 hrs at 37° C. and loaded onto a 0.6% agarose gel followed by Southern blotting using the Telotaggg Telomere Length Assay Kit (Roche). Quantification was performed using the WALTER webtool.

293T cells [3] = assay: Cell cycle analysis by DAPI staining and flow cytometry, 293T cells; format: cell-based, human
Method: (§3) Cell cycle analysis by DNA content staining and flow cytometry: Cells were prepared either for flow-FISH staining as described (for experiments in FIG. 5) or by ethanol fixation (for data in FIG. 6, 27), followed by rehydration and counterstaining using DAPI (BD Biosciences) and analysis on an LSR-II or Fortessa analyzer (BD Biosciences) using BD FACSDiva 8.0.2. Cells were gated on FSC/SSC as described in FIG. 6d using FlowJo V10.7.1.

K562 cells [4] = assay: Cell cycle analysis by DAPI staining and flow cytometry, K562 cells; format: cell-based, human
Method: as §3

[5] = tested on: TERC−/− 293T cells stably expressing dmDNK; assay: Telomere DNA content blot in dmDNK expressing cells; format: cell-based, human; details: TERT and TERC transfected, nucleoside 24-30 hrs, versus eGFP control
From the text: Combining thymidine treatment with expression of a nucleoside kinase to improve efficiency of nucleoside uptake and thereby promote telomere lengthening. combining nucleoside treatment with the expression of TK1, or the deoxynucleoside kinase from Drosophila (dmDNK), either of which can be delivered via mRNA. See FIG. 29A-B. TERC-/- 293T cells stably expressing dmDNK or eGFP (control) were transfected with vectors to express […], then cultured in the indicated doses of nucleoside, followed by analysis of telomere DNA content via blotting and detection with a complementary oligonucleotide probe.

293T cells [6] = assay: Polar metabolite profiling by LC-MS of dT treated 293T cells; format: cell-based, human
Method: Liquid Chromatography-Mass Spectrometry: extraction of and quantification of polar metabolites was performed as described using HPLC grade methanol (Fisher Scientific). If a given species was detected in multiple ion modes, the mode with the highest average signal in the untreated cells was used for analysis.

telomerase = assay: TRAP assay on lysates from 293T cells treated with dT; format: cell-based, human; details: 293T cells treated with or without 100 μM dT, 3 days
Method: TRAP assay: cell extracts for TRAP assays were made using TRAPeze™1×CHAPS Lysis Buffer (Roche) supplemented with RNASEin (Promega). Standard TRAP reactions (in FIG. 25a) were performed as described, with cell input normalized across samples using the Bio-Rad DC assay. TRAP assays were modified to enable unique dNTP concentrations in telomerase reactions from PCR reactions (FIG. 25) as follows: reactions were assembled with 1×TRAP buffer (20 mM Tris-HCl, pH 8.3; 1.5 mM MgCl2; 63 mM KCl; 0.05% Tween 20; 1 mM EGTA), TS, ACX, TNST, and NT primers as described (see Primers/Oligos below), dNTPs were added at physiologic concentrations (dATP 24 μM, dGTP 5.2 μM, dCTP 29 μM, dTTP 37 μM) unless otherwise mentioned in the figure legend, followed by telomerase extracts. TRAP assays were modified to detect GGAAAG repeats using the following primers: TS GGAAAG, TNST GGAAAG, ACX GGAAAG, and NT (see Primers/Oligos below). After addition of telomerase extracts, reactions were incubated for 30 minutes at 30° C. followed by heat inactivation at 95° C. for 5 minutes. […] Images were quantified for a given lane using ImageJ by measuring the signal of the telomerase repeat sized products divided by the signal of the internal control band for the lane, normalized to the same ratio for the untreated sample(s) in a given experiment. […]

[7] = tested on: super-telomerase cells (TERC-null 293T cells transfected with TERT and TERC); assay: Cell cycle analysis by DAPI staining and flow cytometry, super-telomerase cells; format: cell-based, human; details: 40 μM dT
Method: as §3

[8] = tested on: iPSCs from a healthy donor; assay: TRF Southern blot telomere length, wildtype iPSCs; format: cell-based, human
Method: as §1, §2

TERC-null 293T cells = assay: TRF Southern blot telomere length, telomerase-negative TERC-null 293T cells; format: cell-based, human; details: 100 μM thymidine for 7 days
Method: as §1, §2

wild-type iPSCs = assay: Cell cycle analysis by DAPI staining and flow cytometry, iPSCs; format: cell-based, human; details: 24 hours
Method: as §3

[9] = tested on: pCHK1-S345 and pRPA32-S33; assay: Immunoblot of replication stress signaling in iPSCs; format: cell-based, human; details: iPSCs treated with dT

Cc1cn([C@H]2C[C@H](O)[C@@H](CO)O2)c(=O)[nH]c1=O [dT, 1-[(2R,4S,5R)-4-Hydroxy-5-(hydroxymethyl)oxolan-2-yl]-5-methylpyrimidine-2,4 (1H,3H)-dione]
lifespan [1]: increased lifespan in a mouse model of TK2 deficiency
thymidine doses driving robust telomere length increases (K562 cells [2]; 34 days of culture in low dose thymidine (FIGS. 2L and 2N)): ≥ 5 µM
doses leading to robust telomere elongation in less than 10 days (K562 cells [2]; K562 cells): ≥ 50 µM
telomere length (K562 cells [2]; K562 cells, 100 μM of the indicated deoxynucleoside(s) for 8 days): rapidly and robustly increases telomere length; also recorded: promoted telomere lengthening, as did dT alone
telomere lengthening following dT with dNTPase-deficient SAMHD1 H215A or K312A variants (K562 cells [2]; K562 cells, 10 days): could not restrict telomere lengthening following dT supplementation
telomere lengthening following dT treatment with overexpression of wild-type SAMHD1 (K562 cells [2]; K562 cells, 10 days, compared to EGFP control): reduced telomere lengthening following dT treatment
lowest dT dose giving robust telomere lengthening without growth change (K562 cells [2]; K562 cells, 34 days): ≥ 5 µM
telomere lengthening upon dT treatment in TK1-edited cells (K562 cells [2]; K562 cells, CRISPR/Cas9 TK1 edited, 10 days): complete abrogation of the telomere lengthening
telomere lengthening upon dT treatment in TK2-edited cells (K562 cells [2]; K562 cells, CRISPR/Cas9 TK2 edited, 10 days): no difference in telomere length increases compared to control AAVS1-targeted cells
telomere elongation, increase of base pairs (bp) per day (K562 cells [2]; K562 cells, at 100 μM dT): 204 bp per day
telomere elongation, increase of base pairs (bp) per day (K562 cells [2]; K562 cells, at […] dT): 132 bp per day
telomere lengthening in TYMS-knockout cells (K562 cells [2]; K562 cells, baseline 16 μM dT, plus 100 μM additional dT or 1 mM dU, 10 days): responsive to dT to promote telomere lengthening
dT doses with no detectable changes in cell cycle distribution (293T cells [3]): below 100 μM
dT doses with no detectable changes in cell cycle distribution (K562 cells [4]): below 12.5 μM
telomere lengthening with expression of a nucleoside kinase (dmDNK) [5]: Enhanced telomere lengthening from the combination of expressing a nucleoside kinase with dT treatment
dTDP levels (293T cells [6]; 100 μM dT): fourfold
levels of dTTP compared to vehicle (293T cells [6]; 100 μM dT): four-fold
levels of dTMP, dTDP and dTTP (293T cells [6]; 100 μM dT for 24 hours): increases levels of dTMP, dTDP and dTTP
telomerase activity in lysates (abundance of active telomerase enzymes) (telomerase): no difference in telomerase activity
cell cycle progression at the telomere-active dose [7]: below those that significantly impacted cell cycle progression
telomere elongation ([8]; 100 μM dT, three weeks): ~ 2000 bp
telomere elongation ([8]; dT for three weeks): significantly elongated telomeres
telomere length (TERC-null 293T cells): failed to drive detectable telomere elongation
dT doses with minimal effects on cell cycle progression (wild-type iPSCs): ≤ 50 µM
replication stress signaling [9]: no indication of replication stress signaling
